pKi: −log10 of the molar value. Where two headings read alike, the source gives them in different places.
Legend:
JAK1 = JAK1 (Homo sapiens (Human), UniProt P23458); assay: LanthaScreen JAK biochemical assay (JAK1)
[1] = tested on: IL-4 induced STAT6 phosphorylation in THP-1 human monocytic cells; assay: Cellular JAK potency assay, THP-1
[2] = tested on: IL-13 induced STAT6 phosphorylation in BEAS-2B human lung epithelial cells; assay: AlphaScreen cellular JAK potency assay, BEAS-2B
JAK2 = JAK2 (Homo sapiens (Human), UniProt O60674); assay: LanthaScreen JAK biochemical assay (JAK2)
[3] = IL-4 induced STAT6 phosphorylation, THP-1 cells
[4] = IL-13 induced STAT6 phosphorylation, BEAS-2B cells
[5] = Homo sapiens, THP-1, read-out: THP-1 IL4 pIC50 (converted)
[6] = Homo sapiens, BEAS-2B, read-out: BEAS2B pIC50 (converted)
[7] = THP-1 cells, IL-4 induced STAT6 phosphorylation
[8] = BEAS-2B cells, IL-13 induced STAT6 phosphorylation

Chain of JAK1 (P23458 whole entry): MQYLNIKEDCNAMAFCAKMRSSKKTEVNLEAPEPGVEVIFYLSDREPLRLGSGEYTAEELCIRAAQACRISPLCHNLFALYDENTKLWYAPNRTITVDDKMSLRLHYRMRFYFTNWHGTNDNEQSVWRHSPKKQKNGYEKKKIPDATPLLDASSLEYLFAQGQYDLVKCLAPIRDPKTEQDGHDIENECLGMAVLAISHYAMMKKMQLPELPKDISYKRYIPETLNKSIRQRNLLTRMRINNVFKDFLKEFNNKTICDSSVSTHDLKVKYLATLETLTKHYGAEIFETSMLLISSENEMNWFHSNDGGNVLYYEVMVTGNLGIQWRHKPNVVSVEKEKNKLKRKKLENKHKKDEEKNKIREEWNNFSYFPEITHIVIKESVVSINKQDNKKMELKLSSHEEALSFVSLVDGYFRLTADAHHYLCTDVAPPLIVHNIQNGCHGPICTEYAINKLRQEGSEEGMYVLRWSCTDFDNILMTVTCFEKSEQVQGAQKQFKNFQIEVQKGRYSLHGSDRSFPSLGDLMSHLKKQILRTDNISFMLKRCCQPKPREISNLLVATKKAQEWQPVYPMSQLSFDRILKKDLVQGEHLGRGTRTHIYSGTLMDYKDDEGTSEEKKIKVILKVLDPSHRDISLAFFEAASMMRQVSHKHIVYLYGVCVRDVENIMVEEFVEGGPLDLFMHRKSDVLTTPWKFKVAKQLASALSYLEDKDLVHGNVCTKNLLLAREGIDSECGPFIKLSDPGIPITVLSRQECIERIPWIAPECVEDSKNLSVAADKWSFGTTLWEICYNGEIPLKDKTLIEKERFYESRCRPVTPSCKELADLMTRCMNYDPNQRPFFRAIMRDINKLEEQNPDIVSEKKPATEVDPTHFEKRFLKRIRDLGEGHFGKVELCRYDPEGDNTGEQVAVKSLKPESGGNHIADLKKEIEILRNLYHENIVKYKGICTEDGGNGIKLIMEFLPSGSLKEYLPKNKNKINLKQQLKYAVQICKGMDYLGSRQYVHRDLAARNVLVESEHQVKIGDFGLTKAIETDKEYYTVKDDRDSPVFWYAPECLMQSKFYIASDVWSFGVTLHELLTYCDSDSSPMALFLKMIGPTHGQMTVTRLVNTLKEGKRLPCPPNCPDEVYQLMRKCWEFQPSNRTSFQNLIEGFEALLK
Chain of JAK2 (O60674 whole entry): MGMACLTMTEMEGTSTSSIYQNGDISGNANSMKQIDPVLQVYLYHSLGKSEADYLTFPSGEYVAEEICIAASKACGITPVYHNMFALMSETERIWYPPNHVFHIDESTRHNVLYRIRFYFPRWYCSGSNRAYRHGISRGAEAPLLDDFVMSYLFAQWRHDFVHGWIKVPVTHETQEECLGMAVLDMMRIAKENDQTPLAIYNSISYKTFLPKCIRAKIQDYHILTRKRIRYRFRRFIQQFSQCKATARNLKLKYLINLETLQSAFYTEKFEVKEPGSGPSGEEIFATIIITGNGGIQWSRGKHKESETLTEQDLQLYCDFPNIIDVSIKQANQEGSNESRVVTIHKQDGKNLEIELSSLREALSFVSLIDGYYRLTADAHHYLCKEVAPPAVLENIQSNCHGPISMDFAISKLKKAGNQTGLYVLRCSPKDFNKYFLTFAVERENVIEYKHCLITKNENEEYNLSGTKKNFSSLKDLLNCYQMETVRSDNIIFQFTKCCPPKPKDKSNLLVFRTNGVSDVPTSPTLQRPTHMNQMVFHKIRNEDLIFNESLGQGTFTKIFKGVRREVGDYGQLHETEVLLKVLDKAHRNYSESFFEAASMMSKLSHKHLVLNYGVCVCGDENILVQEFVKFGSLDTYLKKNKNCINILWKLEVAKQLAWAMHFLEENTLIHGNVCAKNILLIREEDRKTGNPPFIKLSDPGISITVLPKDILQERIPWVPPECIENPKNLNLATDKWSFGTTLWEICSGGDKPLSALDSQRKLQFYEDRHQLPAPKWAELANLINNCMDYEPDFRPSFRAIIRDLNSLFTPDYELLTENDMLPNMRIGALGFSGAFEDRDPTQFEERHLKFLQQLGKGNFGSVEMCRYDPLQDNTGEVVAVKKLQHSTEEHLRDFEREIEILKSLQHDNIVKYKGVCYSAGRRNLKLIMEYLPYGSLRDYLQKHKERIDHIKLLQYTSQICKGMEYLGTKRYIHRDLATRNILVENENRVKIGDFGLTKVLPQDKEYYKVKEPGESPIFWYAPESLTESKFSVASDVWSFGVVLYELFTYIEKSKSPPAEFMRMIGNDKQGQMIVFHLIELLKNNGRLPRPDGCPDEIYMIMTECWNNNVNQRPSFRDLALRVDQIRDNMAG

| SMILES | JAK 1 (pKi) (JAK1) | THP-1 IL4 pIC50 [1, 3] | BEAS2B pIC50 [2, 4] | JAK 2 (pKi) (JAK2) | BEAS2B pIC50 [2, 8] | further results |
| --- | --- | --- | --- | --- | --- | --- |
| COc1ccc2c(N[C@@H]3C[C@H]4CC[C@@H](C3)N4CC(C)C)nc(Nc3cc(C)[nH]n3)cc2n1 [Example 5-4] | B (B represents a pKi value between 9 and 10 (Ki between 1 nM and 0.1 nM)) | A (A represents a pEC50 value≥7.5 (EC50≤32 nM)) | A (A represents a pEC50 value≥7.5 (EC50≤32 nM)) | – | – | – |
| Cc1cc(Nc2cc3ncccc3c(N[C@@H]3C[C@H]4CCC[C@@H](C3)N4C(=O)c3ccccc3)n2)n[nH]1 [Example 2-25] | – | A (A represents a pEC50 value≥7.5 (EC50≤32 nM)) | A (A represents a pEC50 value≥7.5 (EC50≤32 nM)) | A (A represents a pKi value≥10 (Ki≤0.1 nM)) | – | – |
| COc1ccnc2cc(Nc3cc(C)[nH]n3)nc(N[C@@H]3C[C@H]4CC[C@@H](C3)N4C(=O)C(F)F)c12 [Example 7-5] | – | – | – | – | – | pKi (JAK1): 9.00 to 10.00; IC50 [1, 5]: 31.6 to 200 nM; IC50 [2, 6]: 31.6 to 200 nM |
| COc1cnc2cc(Nc3cc(C)[nH]n3)nc(N[C@@H]3C[C@H]4CC[C@@H](C3)N4CC(C)C)c2c1 [Example 6-14] | B (B represents a pKi value between 9 and 10 (Ki between 1 nM and 0.1 nM)) | – | – | – | A (A represents a pEC50 value≥7.5 (EC50≤32 nM)) | THP-1 IL4 pIC50 [1, 7]: A (A represents a pEC50 value≥7.5 (EC50≤32 nM)) |
| Cc1cc(Nc2cc3nc(CN4CCOCC4)ccc3c(N[C@@H]3C[C@H]4CC[C@@H](C3)N4CC(F)(F)F)n2)n[nH]1 [Example 15, N^7-(5-methyl-1H-pyrazol-3-yl)-2-(morpholinomethyl)-N^5-((1R,3s,5S)-8-(2,2,2-trifluoroethyl)-8-azabicyclo[3.2.1]octan-3-yl)-1,6-naphthyridine-5,7-diamine] | – | – | – | – | – | IC50 [1, 5]: < 31.6 nM; IC50 [2, 6]: < 31.6 nM |
| COc1cnc2cc(Nc3cc(C)[nH]n3)nc(N[C@@H]3C[C@H]4CC[C@@H](C3)N4CCCF)c2c1 [Example 6-16] | B (B represents a pKi value between 9 and 10 (Ki between 1 nM and 0.1 nM)) | – | – | – | B (B represents a pEC50 value between 6.7 and 7.5 (EC50 between 200 nM and 32 nM)) | THP-1 IL4 pIC50 [1, 7]: B (B represents a pEC50 value between 6.7 and 7.5 (EC50 between 200 nM and 32 nM)) |
| Cc1cc(Nc2cc3nc(CN4CCOCC4)ccc3c(N[C@@H]3C[C@H]4CCC[C@@H](C3)N4S(=O)(=O)c3cccnc3)n2)n[nH]1 [Example 5-27] | – | A (A represents a pEC50 value≥7.5 (EC50≤32 nM)) | A (A represents a pEC50 value≥7.5 (EC50≤32 nM)) | – | – | – |
| Cc1cc(Nc2nc(N[C@@H]3C[C@H]4CC[C@@H](C3)N4S(=O)(=O)c3cncc(F)c3)c3cccnc3c2F)n[nH]1 [Example 8-5] | B (B represents a pKi value between 9 and 10 (Ki between 1 nM and 0.1 nM)) | – | – | – | A (A represents a pEC50 value≥7.5 (EC50≤32 nM)) | THP-1 IL4 pIC50 [1, 7]: B (B represents a pEC50 value between 6.7 and 7.5 (EC50 between 200 nM and 32 nM)) |
| Cc1cc(Nc2cc3ncccc3c(N[C@@H]3C[C@H]4CCC[C@@H](C3)N4S(=O)(=O)N3CCC3)n2)n[nH]1 [Example 4-29] | A (A represents a pKi value≥10 (Ki≤0.1 nM)) | A (A represents a pEC50 value≥7.5 (EC50≤32 nM)) | A (A represents a pEC50 value≥7.5 (EC50≤32 nM)) | – | – | – |
| Cc1cc(Nc2cc3ncccc3c(N[C@@H]3C[C@H]4CCC[C@@H](C3)N4S(=O)(=O)N3CCCC3)n2)n[nH]1 [Example 4-27] | – | A (A represents a pEC50 value≥7.5 (EC50≤32 nM)) | A (A represents a pEC50 value≥7.5 (EC50≤32 nM)) | – | – | – |
| Cc1cc(Nc2cc3ncccc3c(N[C@@H]3C[C@H]4CCC[C@@H](C3)N4C(=O)c3ccnc(C#N)c3)n2)n[nH]1 [Example 2-30] | B (B represents a pKi value between 9 and 10 (Ki between 1 nM and 0.1 nM)) | – | C (C represents a pEC50 value<6.7 (EC50>200 nM)) | B (B represents a pKi value between 9 and 10 (Ki between 1 nM and 0.1 nM)) | – | – |
| Cc1cc(Nc2cc3nc(CN4CCOCC4)ccc3c(N[C@@H]3C[C@H]4CCC[C@@H](C3)N4S(=O)(=O)c3cncc(F)c3)n2)n[nH]1 [Example 5-30] | – | A (A represents a pEC50 value≥7.5 (EC50≤32 nM)) | A (A represents a pEC50 value≥7.5 (EC50≤32 nM)) | A (A represents a pKi value≥10 (Ki≤0.1 nM)) | – | – |
| COC(=O)c1cnc2cc(Nc3cc(C)[nH]n3)nc(N[C@@H]3C[C@H]4CC[C@@H](C3)N4CC(=O)OC(C)C)c2c1 [Example 6-41] | – | – | – | B (B represents a pKi value between 9 and 10 (Ki between 1 nM and 0.1 nM)) | B (B represents a pEC50 value between 6.7 and 7.5 (EC50 between 200 nM and 32 nM)) | THP-1 IL4 pIC50 [1, 7]: A (A represents a pEC50 value≥7.5 (EC50≤32 nM)) |
| Cc1cc(Nc2nc(N[C@@H]3C[C@H]4CC[C@@H](C3)N4S(=O)(=O)c3cccnc3)c3cccnc3c2F)n[nH]1 [Example 8-4] | B (B represents a pKi value between 9 and 10 (Ki between 1 nM and 0.1 nM)) | – | – | – | B (B represents a pEC50 value between 6.7 and 7.5 (EC50 between 200 nM and 32 nM)) | THP-1 IL4 pIC50 [1, 7]: B (B represents a pEC50 value between 6.7 and 7.5 (EC50 between 200 nM and 32 nM)) |
| Cc1cc(Nc2cc3nc(CN4CCOCC4)ccc3c(N[C@@H]3C[C@H]4CC[C@@H](C3)N4S(=O)(=O)N3CCC3)n2)n[nH]1 [Example 5-21] | – | – | – | – | – | IC50 [1, 5]: < 31.6 nM; IC50 [2, 6]: < 31.6 nM |
| Cc1cc(Nc2cc3ncccc3c(N[C@@H]3C[C@H]4CCC[C@@H](C3)N4C(=O)c3cncc(C#N)c3)n2)n[nH]1 [Example 2-26] | B (B represents a pKi value between 9 and 10 (Ki between 1 nM and 0.1 nM)) | – | C (C represents a pEC50 value<6.7 (EC50>200 nM)) | B (B represents a pKi value between 9 and 10 (Ki between 1 nM and 0.1 nM)) | – | – |
| CCC(C)C(=O)N1[C@@H]2CC[C@H]1C[C@H](Nc1nc(Nc3cc(C)[nH]n3)cc3nccc(OC)c13)C2 (stereo partly drawn) [Example 7-4] | B (B represents a pKi value between 9 and 10 (Ki between 1 nM and 0.1 nM)) | – | – | – | B (B represents a pEC50 value between 6.7 and 7.5 (EC50 between 200 nM and 32 nM)) | THP-1 IL4 pIC50 [1, 7]: B (B represents a pEC50 value between 6.7 and 7.5 (EC50 between 200 nM and 32 nM)) |
| Cc1cc(Nc2cc3ncc(S(C)(=O)=O)cc3c(N[C@@H]3C[C@H]4CC[C@@H](C3)N4Cc3ccncc3)n2)n[nH]1 [Example 6-59] | – | – | – | A (A represents a pKi value≥10 (Ki≤0.1 nM)) | C (C represents a pEC50 value<6.7 (EC50>200 nM)) | – |
| CNC(=O)CN1[C@@H]2CCC[C@H]1C[C@H](Nc1nc(Nc3cc(C)[nH]n3)cc3ncccc13)C2 [Example 17, N-methyl-2-((1R,3s,5S)-3-((7-((5-methyl-1H-pyrazol-3-yl)amino)-1,6-naphthyridin-5-yl)amino)-9-azabicyclo[3.3.1]nonan-9-yl)acetamide] | – | – | – | – | – | IC50 [1, 5]: 31.6 to 200 nM; IC50 [2, 6]: 31.6 to 200 nM |
| CCC1(S(=O)(=O)N2[C@@H]3CCC[C@H]2C[C@H](Nc2nc(Nc4cc(C)[nH]n4)cc4ncccc24)C3)CC1 [Example 4-20] | – | A (A represents a pEC50 value≥7.5 (EC50≤32 nM)) | A (A represents a pEC50 value≥7.5 (EC50≤32 nM)) | A (A represents a pKi value≥10 (Ki≤0.1 nM)) | – | – |
| CCC(C)OC(=O)N1[C@@H]2CCC[C@H]1C[C@H](Nc1nc(Nc3cc(C)[nH]n3)cc3ncccc13)C2 (stereo partly drawn) [Example 3-12] | B (B represents a pKi value between 9 and 10 (Ki between 1 nM and 0.1 nM)) | – | B (B represents a pEC50 value between 6.7 and 7.5 (EC50 between 200 nM and 32 nM)) | B (B represents a pKi value between 9 and 10 (Ki between 1 nM and 0.1 nM)) | – | – |
| COc1ccc2c(N[C@@H]3C[C@H]4CC[C@@H](C3)N4CCCC#N)nc(Nc3cc(C)[nH]n3)cc2n1 [Example 5-2] | B (B represents a pKi value between 9 and 10 (Ki between 1 nM and 0.1 nM)) | B (B represents a pEC50 value between 6.7 and 7.5 (EC50 between 200 nM and 32 nM)) | A (A represents a pEC50 value≥7.5 (EC50≤32 nM)) | – | – | – |
| COc1cnc2cc(Nc3cc(C)[nH]n3)nc(N[C@@H]3C[C@H]4CC[C@@H](C3)N4CC(F)(F)F)c2c1 [Example 6-17] | – | – | – | – | – | Ki (JAK1; read-out: JAK 1 (pKi) (converted)): 0.1 to 1 nM; IC50 [1, 5]: < 31.6 nM; IC50 [2, 6]: < 31.6 nM |
| Cc1cc(Nc2cc3ncccc3c(N[C@@H]3C[C@H]4CCC[C@@H](C3)N4Cc3cccnc3)n2)n[nH]1 [Example 1-47] | – | A (A represents a pEC50 value≥7.5 (EC50≤32 nM)) | A (A represents a pEC50 value≥7.5 (EC50≤32 nM)) | A (A represents a pKi value≥10 (Ki≤0.1 nM)) | – | – |
| Cc1cc(Nc2cc3ncccc3c(N[C@@H]3C[C@H]4CCC[C@@H](C3)N4C(=O)CCC(C)C)n2)n[nH]1 [Example 2-31] | B (B represents a pKi value between 9 and 10 (Ki between 1 nM and 0.1 nM)) | – | B (B represents a pEC50 value between 6.7 and 7.5 (EC50 between 200 nM and 32 nM)) | B (B represents a pKi value between 9 and 10 (Ki between 1 nM and 0.1 nM)) | – | – |
| Cc1cc(Nc2cc3ncc(S(C)(=O)=O)cc3c(N[C@@H]3C[C@H]4CCC[C@@H](C3)N4Cc3ccncc3)n2)n[nH]1 [Example 6-60] | A (A represents a pKi value≥10 (Ki≤0.1 nM)) | – | – | A (A represents a pKi value≥10 (Ki≤0.1 nM)) | B (B represents a pEC50 value between 6.7 and 7.5 (EC50 between 200 nM and 32 nM)) | – |
| Cc1cnc2cc(Nc3cc(C)[nH]n3)nc(N[C@@H]3C[C@H]4CCC[C@@H](C3)N4S(=O)(=O)N3CC(C#N)C3)c2c1 [Example 6-9] | – | – | – | A (A represents a pKi value≥10 (Ki≤0.1 nM)) | A (A represents a pEC50 value≥7.5 (EC50≤32 nM)) | THP-1 IL4 pIC50 [1, 7]: A (A represents a pEC50 value≥7.5 (EC50≤32 nM)) |
